Assay results reported in patent publication US9422238B2, “ICMT inhibitors” (National University of Singapore, priority 2012, dated 2016).
Entries after “also recorded” stand apart in the source; their conditions may differ. Like-named read-outs stand apart in the source and are kept apart here.

Columns and labels:
[1] = test system: human pancreatic cancer MIA PACA II cells; assay: Cell viability (MTS); format: cell-based; conditions: MIA PaCa-2, Table 6, N = 2
Description: Human hepatocellular carcinoma HepG2 and human pancreatic cancer MIA PACA II cells were obtained from ATCC (Rockville, Md.). They were grown in DMEM (high glucose, Invitrogen) supplemented with 10% FBS, 50 μg/mL penicillin and 50 μg/mL streptomycin, 37° C., 5% CO2 until they reached 80-90% confluency, after which they were subcultured. Passage numbers were kept within 7-14 passages for both cell types.

PC3 cells [2] = assay: Cell cycle analysis by flow cytometry; format: cell-based, human; conditions: PC3, 48 h
Description: PC3 cells were seeded at 100 000 cells/mL per well in 6-well plates with media DMEM (high glucose, 10% FBS, 50 μg/mL penicillin, 50 μg/mL streptomycin) and incubated (24 h, 37° C., 5% CO2) to allow cell attachment after which they were treated with test compound (in DMEM, high glucose, 5% FBS, 50 μg/mL penicillin, 50 μg/mL streptomycin) for 48 h. Final volume of DMSO per well was 0.05% v/v. Control wells (without test compound) were similarly treated. After the specified time, supernatant in the well was collected; the cell pellet was trypsinized, combined with the supernatant and pelleted by centrifugation (150 g, 5 min). After rinsing the pellet twice with ice-cold 1×PBS, the cells were suspended in 0.3 mL PBS, to which was added dropwise and with gentle shaking, cold ethanol (0.7 mL) to give a final concentration of 70% ethanol. The cell sample was then kept at 4° C. overnight after which it was centrifuged (150 g, 5 min), the supernatant was removed, the pellet rinsed with cold PBS and re-suspended in a solution of 100 μg/mL propidium iodide (PI, Sigma Aldrich, Singapore) and 0.1 mg/mL ribonuclease A (Sigma Aldrich, Singapore) in PBS (500 μL). The suspension was kept in the dark for 1 h, 25° C. (room temperature) before being analyzed for distribution in the G1,S, G2/M phases on a FCS500 flow cytometer (Beckman Coulter, CA) using the FlowJo® software (http: http://www.flowjo.com/) Each test compound was evaluated at 4 concentrations with 2 repeats per concentration.

PC3 cells [3] = assay: Colony formation (clonogenic) assay; format: cell-based, human; conditions: PC3, 2 weeks; 8-12 1-3 μM, cysmethynil 15-25 μM
Description: A flask ([…]) of PC3 cells in media (DMEM high glucose, 10% fetal bovine serum, 50 μg/mL penicillin, 50 μg/mL streptomycin) was grown to 80-90% confluency. The media was removed by pipetting and the cell layer washed with 1×PBS (5 mL). An aliquot of trypsin (1 mL, 0.25% trypsin-EDTA (1×)-phenol red, Invitrogen) was added to the plate, tapped gently for even distribution and incubated at 37° C., 5% CO2 for 1 min. The plate was quickly viewed under the microscope to confirm that cells have rounded up. Media (10 mL) was then added and the cell suspension transferred to a falcon tube (15 mL). An aliquot (10 μl) was transferred to a hemocytometer for cell counting. The suspension was then diluted to give the desired seeding concentration of 1000 cells per well in a 6-well plate. After seeding, the plate was gently tapped to help cells spread out within the wells. Plates were then incubated for 2 h (37° C., 5% CO2) for cell attachment to take place. The media was removed with a pipette, the cell layer in the well washed with PBS and replaced by a solution of the test compound in 2 mL of DMEM (containing 5% FBS, instead of 10% FBS). Test compounds were prepared in DMSO stock solutions. The final concentration of DMSO in the well was 0.05% v/v. Control plates were also prepared in which no test compound was added but with DMSO maintained at 0.05%. […]

[4] = Pharmacokinetic study, IP; format: in vivo, mice; conditions: for detection in plasma at late time points: IP; for half-life / AUC / Tmax / Cmax: female, mouse, plasma; for half-life: Balb/c
HepG2 xenografts = assay: In vivo activity on xenograft bearing mice; conditions: for deaths during the treatment period: 8 mice
Description: HepG2 cells were grown in DMEM and 10% FBS until near confluence and then harvested after trypsinization. […] The vehicle was ethanol-PEG400-dextrose solution as described in 5.2.1. The animals were monitored daily for changes in their general appearance, weight and tumor volume. Tumor volume was calculated using the formula: […]. Length (L) and width (W) of the tumor were measured with a digital vernier caliper and reported to 2 decimal places. The shorter of the 2 distances was taken as width. The mice were monitored—for 25-days after which they were euthanized with CO2, the tumors removed by dissection and weighed.

[5] = Balb/c mice, 20 mg/kg IP, 20 mg/kg

CCCCCCCCn1cc(CN(CC)CC)c2cc(-c3cnc(N)nc3)ccc21 [Compound 8-12, 5-(3-Diethylaminomethyl-1-octyl-1H-indol-5-yl)-pyrimidin-2-ylamine]
IC50 [1]: 1.6 µM
effect on cell cycle distribution (PC3 cells [2]): increased cells in the G1 phase while decreasing cells in G2 phase
% Cells in G1 phase (PC3 cells [2]; 0.8 μM): 52.92 (2) %
% Cells in G2 phase (PC3 cells [2]; 0.8 μM): 24.22 (2) %
% Cells in G1 phase (PC3 cells [2]; 1.0 μM): 59.98 (2)^3%
% Cells in G2 phase (PC3 cells [2]; 1.0 μM): 26.99 (2.77, 3) %
% Cells in G1 phase (PC3 cells [2]; 2.0 μM): 66.45 (2)^3%
% Cells in G2 phase (PC3 cells [2]; 2.0 μM): 11.20 (2)^3%
colony formation (PC3 cells [3]): colony formation was evident only at the lowest concentration of 1 μM and not at higher concentrations (1.5 to 3 μM)
time to peak concentration in plasma ([4]; 10 mg/kg or 25 mg/kg IP): within an hour
Clearance ([4]; Balb/c mice, 10 mg/kg IP): 6.67 mL/min/kg
Clearance ([4]; Balb/c mice, 25 mg/kg IP): 10.1 mL/min/kg
Volume of Distribution ([4]; Balb/c mice, 25 mg/kg IP): 1.185 L/kg
detection in plasma at late time points ([4]; Balb/c mice): not detected after 24 h and 48 h
half-life ([4]; intraperitoneal, summary, treated mice, read-out: half life): < 1 h
half-life ([4]; ip, 10 mg/kg or 25 mg/kg IP, estimated, read-out: half life): < 3 h
half-life ([4]; ip, 10 mg/kg, Balb/c mice, 10 mg/kg IP, read-out: T1/2 (converted)): 1.25 h
half-life ([4]; ip, 25 mg/kg, Balb/c mice, 25 mg/kg IP, read-out: T1/2 (converted)): 1.36 h
AUC ([4]; Balb/c mice, 10 mg/kg IP): 24.6 µg·h/mL
Tmax ([4]; Balb/c mice, 10 mg/kg IP): 0.25 h
AUC ([4]; Balb/c mice, 25 mg/kg IP): 40.8 µg·h/mL
Tmax ([4]; Balb/c mice, 25 mg/kg IP): 0.75 h
Cmax ([4]; Balb/c mice, 10 mg/kg IP): 17.9 µg/mL
Cmax ([4]; Balb/c mice, 25 mg/kg IP): 17.4 µg/mL
deaths during the treatment period (HepG2 xenografts; 15 mg/kg IP daily, 25 days): one animal died
deaths during the treatment period (HepG2 xenografts; 30 mg/kg IP daily, 25 days): Three deaths
reduction in relative tumor volume (HepG2 xenografts; 15 and 30 mg/kg IP daily, p<0.05 vs control): Significant reduction in tumor volume was evident from Day 5 onwards for animals receiving 30 mg/kg and Day 7 onwards for animals receiving 15 mg/kg; also recorded: Reduction in tumor volume was significant from Day 5 and Day 7 onwards for animals dosed with 30 mg/kg and 15 mg/kg respectively
weight of excised tumors vs control (HepG2 xenografts; after 25 days): significant weight loss compared to control

CCCCCCCCn1cc(CC(N)=O)c2cc(-c3cccc(C)c3)ccc21 [Cysmethynil, 2-[5-(3-methylphenyl)-1-octyl-1H-indolo-3-yl]acetamide, reference compound]
IC50 [1]: 22.5 µM
effect on cell cycle distribution (PC3 cells [2]): the changes in G1/G2 cell populations were not statistically significant
% Cells in G1 phase (PC3 cells [2]; 12.5 μM): 53.0 (2) %
% Cells in G2 phase (PC3 cells [2]; 12.5 μM): 27.87 (2) %
% Cells in G1 phase (PC3 cells [2]; 17.5 μM): 51.83 (2) %
% Cells in G2 phase (PC3 cells [2]; 17.5 μM): 26.85 (12.28, 3) %
% Cells in G1 phase (PC3 cells [2]; 20.0 μM): 54.85 ( 2) %
% Cells in G2 phase (PC3 cells [2]; 20.0 μM): 32.07 (2) %
colony formation (PC3 cells [3]): Colony formation was observed with 15 μM cysmethynil but not at higher concentrations (17.5 to 25 μM)
Clearance ([4]; Balb/c mice, 20 mg/kg IP): 0.395 mL/min/kg
T1/2 [4, 5]: 1.55 h
Volume of Distribution [4, 5]: 0.0529 L/kg
Volume of Distribution ([4]; Balb/c mice, 20 mg/kg IP, listed as cysmethynil, 20 mg/kg): 0.053 L/kg
Clearance ([4]; Balb/c mice, 100 mg/kg IP): 0.217 mL/min/kg
Volume of Distribution ([4]; Balb/c mice, 100 mg/kg IP): 0.0799 L/kg
detection in plasma at late time points ([4]; Balb/c mice): could not be detected in plasma beyond this time
half-life ([4]; ip, 20 mg/kg, Balb/c mice, 20 mg/kg IP, read-out: T1/2 (converted)): 1.6 h
half-life ([4]; ip, 100 mg/kg, Balb/c mice, 100 mg/kg IP, read-out: T1/2 (converted)): 4.3 h
AUC ([4]; Balb/c mice, 20 mg/kg IP): 843 µg·h/mL
Tmax ([4]; Balb/c mice, 20 mg/kg IP): 0.75 h
AUC ([4]; Balb/c mice, 100 mg/kg IP): 7690 µg·h/mL
Tmax ([4]; Balb/c mice, 100 mg/kg IP): 0.75 h
Cmax ([4]; Balb/c mice, 20 mg/kg IP): 210 µg/mL
Cmax ([4]; Balb/c mice, 100 mg/kg IP): 1160 µg/mL
body weight change (HepG2 xenografts; xenograft-bearing mice, 25 days): Weight loss was observed up to Day 11
